Laboratory results: US11266743B2, “Peptide compositions and methods of use thereof” (priority 2017, dated 2022)
Square brackets hold non-standard residues; d marks the D form. Ends that are not written are not given here.

What was measured:
Type in all cases: cell-based
[1] = system: Hela cells stably transfected with mCherry and GFP1-10; assay: Split GFP assay (GFP-11 delivery); conditions: for GFP fluorescence above background / GFP fluorescence level: 10 μM; for GFP-11 delivery: all concentrations and temperatures studied
Procedure: To test the ability of CPPs to deliver other cargoes, specifically a protease-sensitive peptide cargo, we modified the well-known split-GFP assay. CPPs were tested for the ability to deliver the polar 16-residue GFP-11 peptide across the membrane barrier. This peptide rescues the fluorescence of the cytosolic endogenous, non-fluorescent GFP1-10 protein. Here, we stably transfected Hela cells with a plasmid containing the full length mCherry and the non-fluorescent GFP1-10. Following incubation with CPP-GFP-11 constructs at multiple concentrations and temperatures for 30 minutes in serum free DMEM, cells were analyzed by flow cytometry for mCherry and GFP fluorescence (FIG. 17). Live cells expressing mCherry (˜50% of the total cells) were gated and their GFP fluorescence was analyzed. Unlike the luciferase splice correction assay where a single corrected mRNA transcript serves as template for many molecules of functional luciferase, the split GFP assay is stoichiometric; a single GFP-11 peptide can bind to a single GFP1-10 protein producing a finite fluorescent response.
Hela cells were transfected with p_mCherry-GFP1-10 (Addgene plasmid #78591) using LIPOFECTAMINE® 3000 (ThermoFisher). Single mCherry positive cells were sorted into 96-well plates using a BD™ FACSARIA™ cell sorter and colonies were maintained under G418 selection at […]. Stably transfected cells were plated in 12-well plates at 100,000 cells/well and grown overnight in complete DMEM. Cells were washed in PBS and incubated in 500 μl of CPP-GFP-11 solution at variable concentrations at 23° C. and 37° C. for 30 minutes. The CPP-GFP-11 solution was aspirated and 100 μl of 0.025% trypsin solution was added to each well. After detachment, cells were suspended in 500 μL of PBS+2% FBS and 20 mM HEPES. Cells were analyzed using a BD™ LSRII flow cytometer. Cells displaying a normal morphology were gated and first analyzed for mCherry fluorescence using the 543 nM laser. mCherry+ cells were used to generate a histogram of GFP fluorescence measured with the 488 nM laser.

[2] = system: Hela pTRE-LucIVS2 cells; assay: ALAMARBLUE toxicity assay of CPP-PNA705; conditions: 10 μM CPP-PNA705 conjugate, after 24 hours
Procedure: CPP-PNA705 cytotoxicity was assessed using several methods known in the art. A Lactate Dehydrogenase (LDH) assay (FIG. 5A) measured the acute cytotoxicity and detects LDH released by cells because of membrane damage resulting from exposure to the CPPs. An ALAMARBLUE® assay (FIG. 5B) and a Bicinchoninic Acid (BCA) Assay (FIG. 5C) both measure the impact of exposure after 24 hours. In the ALAMARBLUE®, assay some reduction in metabolic activity was detected in Hela705 cells treated with 20 μM CPP-PNA705 concentrations for 1 hour.
Hela pTRE-LucIVS2 cells were plated in 96-well plates at 10,000 cells/well. After 24 hours, cells were treated with CPP constructs for 1 Hr in sfDMEM at 37° C., washed in PBS, and allowed to recover for 24 hours in 100 μl complete media. 10 μl ALAMARBLUE® (ThermoFisher) was added to each well and cells were incubated fo4r 2 Hrs at 37° C. Reduction of ALAMARBLUE® was determined by fluorescence at […].

[3] = system: HeLa, RAW264.7, HepG2, and MCF-7 cells; assay: TAMRA delivery assay (flow cytometry, confocal microscopy); conditions: 0.5 μM CPP-TA + 4.5 μM CPP-C, 30 minutes at 4° C., 22° C., or 37° C.
Procedure: To determine the effect of the PNA cargo on delivery, we labeled CPPs, lacking the PNA705 cargo, with the fluorophore TAMRA on a C-terminal cysteine residue (CPP-TA) and measured delivery to multiple cell types. TAMRA-labelled CPPs, mixed with unlabeled CPPs at a 1:10 ratio in serum-free DMEM for a final concentration of 5 μM total peptide, was added to HeLa, RAW264.7, HepG2, and MCF-7 cells in 12-well cell culture plates and incubated for 30 minutes at 4° C., 22° C., or 37° C. prior to flow cytometric analysis (FIGS. 9-16). […] Delivery of TAMRA was verified by confocal microscopy for each cell type.
Hela, RAW264.7, HCT116, HepG2, and MCF-7 cells were plated in 12-well plates at 100,000 cells/well. After 24 hours, cells were gently washed in PBS, topped with 500 μl of CPP-TA solution containing 0.5 μM CPP-TA+4.5 uM CPP-C in sfDMEM without phenol red, and incubated for 30 min at either 4° C., 23° C., or 37° C. The incubation solution was aspirated and cells were treated with 100 μl 0.025% Trypsin for 3 minutes at 23° C. 500 μl DMEM containing 2% FBS, 125 nM Sytox Green, and 20 mM HEPES was used to suspend the cells. Cells were transferred to a filter-topped flow cytometry tube and analyzed on a BD™ LSR II flow cytometer. Cells displaying a normal morphology were gated and first analyzed for GFP fluorescence using the 488 nM laser. GFP negative cells were used to generate a histogram of TAMRA fluorescence, measured with the 543 nM laser.
Cells were treated as described above for the TAMRA delivery assay and immediately imaged to avoid artifacts resulting from fixation. The distribution of TAMRA and Sytox Green was analyzed using a confocal scanning Nikon Eclipse Ti2 inverted microscope using a 40× oil-immersion objective. Sytox Green was excited using the 488 nM laser and TAMRA was excited using the 543 nM laser.

[4] = system: S. aureus; assay: Radial diffusion in the presence of RBCs; design: key: The ↑ represents the improvement in performance that would be desired for a viable in vivo antimicrobial peptide; ↓: The symbol represents a regression in desired behavior; *=p<0.05; **=p<0.01; ***=p<0.001; conditions: change versus parent sequence; paired t-test
Procedure: Underlay agarose was prepared by adding 5 g of low EEO agarose and 0.03 g of TSB to 500 mL of 10 mM phosphate buffer (pH=7.4). Overlay agarose was prepared by adding 5 g of low EEO agarose and 30 g of TSB to 500 mL of 10 mM phosphate buffer (pH=7.4). Both solutions were heated until the agarose melted and then were autoclaved. To a rectangular, one-well plate, 20 mL of underlay agarose, inoculated with 8×10^6 CFUs of bacteria, was added. A sterile, 96-well plate replicator from Sigma-Aldrich was set in the molten agarose and removed one the agarose solidified. Antibiotic was prepared at 4 times the final desired concentration. For the antibiotic standard, a serial dilution of 3:4 across a 96-well plate was performed followed by 1:4 dilution with PBS. Otherwise, the peptide was diluted to 20 μM with RBCs and/or serum to give between 2% (1×10^8 cells/mL) and 20% (1×10^9 cells/mL). Solutions were incubated with gentle shaking for 30 minutes at 37° C. […]. Overlay was added, and the plate was incubated upside down overnight. Surface growth was cleared, the plates were sterilized with 25% methanol and 5% acetic acid. Zones of inhibition were photographed and analyzed using ImageJ. (FIG. 21)
(§1) The engineered peptide sequences and their derivation from parent sequences is shown, along with the underlying hypothesis described for the first set of peptides (Table 4) and the second set (Table 5). We performed statistical testing for performance in antimicrobial assays in the presence and absence of RBCs, as well as for cytotoxicity. The broth dilution results were tested using a two sample t-test (N=6-22). The radial diffusion results were tested using a paired t-test (N=4). The cytotoxicity results were tested using a paired t-test (N=3). The ↑ represents the improvement in performance that would be desired for a viable in vivo antimicrobial peptide. This corresponds to a decrease in MIC values (increased potency) and decreased cytotoxicity. The symbol represents a regression in desired behavior. (*=p<0.05, **=p<0.01, ***=p<0.001).

[5] = system: human RBCs; assay: Hemolysis assay; design: key: The ↑ represents the improvement in performance that would be desired for a viable in vivo antimicrobial peptide; ↓: The symbol represents a regression in desired behavior; *=p<0.05; **=p<0.01; ***=p<0.001; conditions: change versus parent sequence; ↑ = improvement (decreased cytotoxicity); paired t-test
Procedure: Peptide was serially diluted in PBS starting at a concentration of 100 μM. The final volume of each peptide in each well was 50 μL. To each well, 50 μL of RBCs in PBS at 2×10^8 cells/mL was added. As a positive lysis control, 1% TRITON™ was used. The mixtures were incubated at 37° C. for 1 hour, after which they were centrifuged at 1000×g for 5 minutes. After centrifugation, 10 μL of supernatant was transferred to 90 μL of DI H2O in a fresh 96-well plate. The absorbance of released hemoglobin at 410 nm was recorded and the fractional hemolysis was calculated based on the 100% and 0% lysis controls. (FIGS. 22, 23, and 26)
as §1

Substance: CPP-1(D)-GFP-11: D-amino acid version of CPP-1 attached to normal L-amino acid GFP-11 ([dR][dK][dK][dR][dW][dF][dR][dR][dR][dR][dP][dK][dW][dK][dK]RDHMVLHEYVNAAGIT)
- D-form CPP versus L-form CPP, GFP-11 delivery [1]: outperformed CPP-1-GFP-11 under all other conditions

Substance: CPP-1-GFP-11: CPP-1 linked to the polar 16-residue GFP-11 peptide (SEQ ID NO: 12) (RKKRWFRRRRPKWKKRDHMVLHEYVNAAGIT)
- GFP fluorescence above background ([1]; 37° C.): 44%
- GFP fluorescence above background ([1]; room temperature): 72%

Substance: CPP-2-GFP-11: CPP-2 linked to the 16-residue GFP-11 peptide (SEQ ID NO: 12) (GRKKRWFRRRRMKWKKRDHMVLHEYVNAAGIT)
- GFP fluorescence level [1]: background fluorescence levels

Substance: CPP-3-GFP-11: CPP-3 linked to the 16-residue GFP-11 peptide (SEQ ID NO: 12) (RIKRRFRRLRPKWKKRDHMVLHEYVNAAGIT)
- GFP fluorescence level [1]: background fluorescence levels

Substance: GRKKRWFRRRRMKWKK [CPP-2]
- reduction in metabolic activity [2]: 10%
- TAMRA delivery (words, rank order) [3]: CPP-2»CPP-3=CPP-1>CPP-4>TAT=penetratin
- GFP-11 delivery [1]: deliver GFP-11 to more cells than Tat and penetratin

Substance: KKGWAKKLAFAFGKK [D-KON]
- Radial Diffusion vs. S. aureus [4]: ↓Radial diffusion vs.

Substance: RIKRRFRRLRPKWKK [CPP-3]
- reduction in metabolic activity [2]: little effect
- TAMRA delivery (words, rank order) [3]: CPP-2»CPP-3=CPP-1>CPP-4>TAT=penetratin
- GFP-11 delivery [1]: deliver GFP-11 to more cells than Tat and penetratin

Substance: RRGWAFRRALAYGRR [D-GNS2]
- Radial Diffusion vs. S. aureus [4]: ↑Radial diffusion vs.
- Hemolysis [5]: ↓Hemolysis**

Substance: RRGWALRLVLAYGRR [RAT3]
- Hemolysis [5]: ↓Hemolysis*

Substance: RRGWARRLAFAFAFGRR [RAT6]
- Hemolysis [5]: ↓Hemolysis*

Substance: RRGWARRLAFAFGRR [D-RAT4]
- Radial Diffusion vs. S. aureus [4]: ↑Radial Diffusion vs.

Substance: RRGWARRLAFAFGRR [RAT4]
- Radial Diffusion vs. S. aureus [4]: ↑Radial Diffusion vs.
- Hemolysis [5]: ↑Hemolysis*

Substance: RRGWARRLAFGRR [RAT7]
- Hemolysis [5]: ↑Hemolysis**

Substance: RRGWARRLFFAYGRR [D-DBS1]
- Radial Diffusion vs. S. aureus [4]: ↑Radial diffusion vs.
- Hemolysis [5]: ↓Hemolysis*

Substance: RRGWARRLRLAFAFGRR [RAT5]
- Radial Diffusion vs. S. aureus [4]: ↑Radial Diffusion vs.
- Hemolysis [5]: ↓Hemolysis*

Substance: RRWARRLFFAYRR [RAT1]
- Radial Diffusion vs. S. aureus [4]: ↑Radial Diffusion vs.

Substance: RRWNLALTLTYYRR [RAT2]
- Hemolysis [5]: ↓Hemolysis*

Substance: Tat(D)-GFP-11: D-amino acid version of Tat attached to normal L-amino acid GFP-11 (G[dR][dK][dK][dR][dR][dQ][dR][dR][dR][dP][dP][dQ]RDHMVLHEYVNAAGIT) [reference compound]
- GFP fluorescence ([1]; concentrations lower than 40 μM): just above background
